Source: the supplement of paper PMC11208160

assay: recombinant UMI read abundance after kanamycin selection (control-corrected) (log10(CPM+1)); higher = more efficient recombination; extreme values may be limits of the assay; sequences stand for … in AGTGCAGAGAAAATCGGCCAGTTTTCTCTGCCTGCAGTCCGCATGCCGTGGGACCCCTTGGGTTCTAACCTGTTGCCTAGATTTATGCAGCGGACTGCCTTTCTCCCAAAGTGATAAACCGG…AGGTTGGTTTCACT; site = the 11-nt donor
How it was run: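 Under IPTG (0.07 mM) plus kanamycin, or without selection, Escherichia coli carrying a UMI-tagged donor and donor-binding-loop pair library and a target plasmid for the IS621 bridge recombinase were plated in two replicates. Recombinant UMIs were PCR-amplified across the donor–target junction and sequenced. Counts were converted to CPM, averaged over replicates, scaled by control-derived factors and reported as log10(CPM+1).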
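Also: IS621 bridge recombinase in Escherichia coli cells against a fixed T5 target plasmid.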

Sequence | recombinant UMI read abundance (log10)
GGCAATTCATGGACCGGTTTTCCCGGTAATCCGTATTTGAA (site GGCAATCCTTT) | 0.0153
GGCAATTCATGGACCGGTTTTCCCGGTAATCCGTATTTGAA (site GGCAATGCTTT) | 0.0122
GGCAATTCATGGACCGGTTTTCCCGGTAATCCGTATTTGAA (site GGCAATTCTTT) | 0.996
GGCAGAACATGGACCGGTTTTCCCGGTAATCCGTATTTGTG (site GGCAGAACTCA) | 1.3
GGCAGCCCATGGACCGGTTTTCCCGGTAATCCGTATTTGAC (site GGCAGCCCTGT) | 0
GGCAGCGCATGGACCGGTTTTCCCGGTAATCCGTATTTGCT (site GGCAGCGCTAG) | 2.43
GGCAGTCCATGGACCGGTTTTCCCGGTAATCCGTATTTGAA (site GGCAATCCTTT) | 0.00812
GGCAGTCCATGGACCGGTTTTCCCGGTAATCCGTATTTGAA (site GGCACTCCTTT) | 0.018
GGCAGTCCATGGACCGGTTTTCCCGGTAATCCGTATTTGAA (site GGCAGTCCTTT) | 0.191
GGCAGTCCATGGACCGGTTTTCCCGGTAATCCGTATTTGAA (site GGCATTCCTTT) | 0
GGCAGTCCATGGACCGGTTTTCCCGGTAATCCGTATTTGGG (site GGCAGTCCTCC) | 0.00418
GGCAGTGCATGGACCGGTTTTCCCGGTAATCCGTATTTGGA (site GGCAGTGCTTC) | 0.329
GGCATTCCATGGACCGGTTTTCCCGGTAATCCGTATTTGAA (site GGCAATCCTTT) | 0
GGCATTCCATGGACCGGTTTTCCCGGTAATCCGTATTTGAA (site GGCACTCCTTT) | 0.0138
GGCATTCCATGGACCGGTTTTCCCGGTAATCCGTATTTGAA (site GGCAGTCCTTT) | 0.00406
GGCATTCCATGGACCGGTTTTCCCGGTAATCCGTATTTGAA (site GGCATTCCTTT) | 0.29
GGCATTGCATGGACCGGTTTTCCCGGTAATCCGTATTTGGT (site GGCATTGCTAC) | 1.48
GGCATTTCATGGACCGGTTTTCCCGGTAATCCGTATTTGGG (site GGCATTTCTCC) | 0
GGCCAGCCATGGACCGGTTTTCCCGGTAATCCGTATTTGTT (site GGCCAACCTAA) | 0.00333
GGCCAGCCATGGACCGGTTTTCCCGGTAATCCGTATTTGTT (site GGCCACCCTAA) | 0.0285
GGCCAGCCATGGACCGGTTTTCCCGGTAATCCGTATTTGTT (site GGCCAGCCTAA) | 0.00292
GGCCAGCCATGGACCGGTTTTCCCGGTAATCCGTATTTGTT (site GGCCATCCTAA) | 0
GGCCCGACATGGACCGGTTTTCCCGGTAATCCGTATTTGCT (site GGCCCGACTAG) | 1.49
GGCCCTGCATGGACCGGTTTTCCCGGTAATCCGTATTTGTA (site GGCCCTGCTTA) | 0.378
GGCGAACCATGGACCGGTTTTCCCGGTAATCCGTATTTGAA (site GGCGAACCTTT) | 0

Sequence | recombinant UMI read abundance (log10)
GGCGATTCATGGACCGGTTTTCCCGGTAATCCGTATTTGGC (site GGCGATTCTGC) | 1.57
GGCGCAGCATGGACCGGTTTTCCCGGTAATCCGTATTTGGT (site GGCGCAGCTAC) | 0.482
GGCGCGACATGGACCGGTTTTCCCGGTAATCCGTATTTGCC (site GGCGCGACTGG) | 1.35
GGCGGCGCATGGACCGGTTTTCCCGGTAATCCGTATTTGTA (site GGCGGCGCTTA) | 0.781
GGCTACCCATGGACCGGTTTTCCCGGTAATCCGTATTTGTT (site GGCAACCCTAA) | 0.00887
GGCTACCCATGGACCGGTTTTCCCGGTAATCCGTATTTGTT (site GGCCACCCTAA) | 0.268
GGCTACCCATGGACCGGTTTTCCCGGTAATCCGTATTTGTT (site GGCGACCCTAA) | 0.015
GGCTACCCATGGACCGGTTTTCCCGGTAATCCGTATTTGTT (site GGCTACCCTAA) | 0.0101
GGCTAGTCATGGACCGGTTTTCCCGGTAATCCGTATTTGAC (site GGCTAGTCTGT) | 0
GGCTCGTCATGGACCGGTTTTCCCGGTAATCCGTATTTGCA (site GGCTCGTCTTG) | 2.16
GGCTCTACATGGACCGGTTTTCCCGGTAATCCGTATTTGGC (site GGCTCTACTGC) | 0
GGCTCTGCATGGACCGGTTTTCCCGGTAATCCGTATTTGCT (site GGCTCTGCTAG) | 1.66
GGCTTAGCATGGACCGGTTTTCCCGGTAATCCGTATTTGAG (site GGCTTAGCTCT) | 1.13
GGCTTGACATGGACCGGTTTTCCCGGTAATCCGTATTTGCG (site GGCTTGACTCG) | 0.919
GGGAAGACATGGACCGGTTTTCCCGGTAATCCGTATTTGGA (site AGGAAGACTTG) | 0.00654
GGGAAGACATGGACCGGTTTTCCCGGTAATCCGTATTTGGA (site GGGAAGACTTC) | 1.22
GGGAAGACATGGACCGGTTTTCCCGGTAATCCGTATTTGGT (site GGGAAGACTAC) | 0.836
GGGAAGCCATGGACCGGTTTTCCCGGTAATCCGTATTTGTT (site CGGAATCCTAA) | 0
GGGAAGCCATGGACCGGTTTTCCCGGTAATCCGTATTTGTT (site GGGAAGCCTAA) | 0.0967
GGGAAGGCATGGACCGGTTTTCCCGGTAATCCGTATTTGCA (site AGGAAGACTTG) | 0
GGGAAGGCATGGACCGGTTTTCCCGGTAATCCGTATTTGCA (site GGGAAGGCTTG) | 2.86
GGGAATCCATGGACCGGTTTTCCCGGTAATCCGTATTTGAT (site CGGAATCCTAA) | 0
GGGAATCCATGGACCGGTTTTCCCGGTAATCCGTATTTGAT (site GGGAATCCTAT) | 0.145
GGGAATCCATGGACCGGTTTTCCCGGTAATCCGTATTTGTT (site AGGAATCCTAA) | 0
GGGAATCCATGGACCGGTTTTCCCGGTAATCCGTATTTGTT (site CGGAATCCTAA) | 0

Sequence | recombinant UMI read abundance (log10)
GGGAATCCATGGACCGGTTTTCCCGGTAATCCGTATTTGTT (site GGGAATCCTAA) | 0.192
GGGAATCCATGGACCGGTTTTCCCGGTAATCCGTATTTGTT (site TGGAATCCTAA) | 0.0126
GGGAATGCATGGACCGGTTTTCCCGGTAATCCGTATTTGGT (site GGGAATGCTAC) | 0.885
GGGACACCATGGACCGGTTTTCCCGGTAATCCGTATTTGCA (site GGGACACCTTG) | 0
GGGACACCATGGACCGGTTTTCCCGGTAATCCGTATTTGCA (site GGGCCACCTTG) | 0
GGGACACCATGGACCGGTTTTCCCGGTAATCCGTATTTGCA (site GGGGCACCTTG) | 0
GGGACACCATGGACCGGTTTTCCCGGTAATCCGTATTTGCA (site GGGTCACCTTG) | 0
GGGACGTCATGGACCGGTTTTCCCGGTAATCCGTATTTGAC (site GGGACGTCTGT) | 3.2
GGGACGTCATGGACCGGTTTTCCCGGTAATCCGTATTTGCA (site GGGACGTCTTG) | 1.99
GGGACGTCATGGACCGGTTTTCCCGGTAATCCGTATTTGGC (site GGGACGTCTGC) | 2.43
GGGACTACATGGACCGGTTTTCCCGGTAATCCGTATTTGAC (site AGGACTACTGT) | 0
GGGACTACATGGACCGGTTTTCCCGGTAATCCGTATTTGAC (site CGGACTACTGT) | 0
GGGACTACATGGACCGGTTTTCCCGGTAATCCGTATTTGAC (site GGGACTACTGT) | 1.48
GGGACTACATGGACCGGTTTTCCCGGTAATCCGTATTTGAC (site TGGACTACTGT) | 0
GGGACTCCATGGACCGGTTTTCCCGGTAATCCGTATTTGAG (site TACGTATCTTC) | 0.0126
GGGACTCCATGGACCGGTTTTCCCGGTAATCCGTATTTGCG (site GGGACTCCTCG) | 0.509
GGGATAGCATGGACCGGTTTTCCCGGTAATCCGTATTTGTT (site GGGATAGCTAA) | 1.85
GGGCAGGCATGGACCGGTTTTCCCGGTAATCCGTATTTGAG (site GGGCAGGCTCT) | 1.48
GGGCAGGCATGGACCGGTTTTCCCGGTAATCCGTATTTGGG (site GGGCAGGCTCC) | 0.0905
GGGCATACATGGACCGGTTTTCCCGGTAATCCGTATTTGAC (site GGGCATACTGT) | 1.8
GGGCCGTCATGGACCGGTTTTCCCGGTAATCCGTATTTGTA (site GGGCCGTCTTA) | 0.733
GGGCGATCATGGACCGGTTTTCCCGGTAATCCGTATTTGGC (site GGGCGATCTGC) | 1.98
GGGGAGGCATGGACCGGTTTTCCCGGTAATCCGTATTTGAG (site GGGGAGGCTCT) | 0.897
GGGGATTCATGGACCGGTTTTCCCGGTAATCCGTATTTGAT (site GGGGATTCTAT) | 1.72
GGGGCACCATGGACCGGTTTTCCCGGTAATCCGTATTTGCA (site AGGGCACCTTG) | 0
